ChEMBL document CHEMBL4346657, “Anticancer activity, dual prooxidant/antioxidant effect and apoptosis induction profile of new bichalcophene-5-carboxamidines” (Eur J Med Chem, 2019)

Assays:
UO-31 = test: Antiproliferative activity against human UO31 cells assessed as growth inhibition after 48 hrs by sulforhodamine B assay; assay type: functional; details: UO-31, 48 h
TK-10 = test: Antiproliferative activity against human TK10 cells assessed as growth inhibition after 48 hrs by sulforhodamine B assay; assay type: functional; details: TK-10, 48 h
[1] = test system: Panel NCI-60 (60 carcinoma cell lines); test: Antiproliferative activity against human NCI60 cells assessed as growth inhibition after 48 hrs by sulforhodamine B assay; assay type: functional
[2] = Selectivity index, ratio of IC50 for human WI38 cells to GI50 for human NCI60 cells
PC-3 = test: Antiproliferative activity against human PC3 cells assessed as growth inhibition after 48 hrs by sulforhodamine B assay; assay type: functional; details: PC-3, 48 h
ACHN = test: Antiproliferative activity against human ACHN cells assessed as growth inhibition after 48 hrs by sulforhodamine B assay; assay type: functional
A498 = test: Antiproliferative activity against human A498 cells assessed as growth inhibition after 48 hrs by sulforhodamine B assay; assay type: functional; details: A498, 48 h
786-0 = test: Antiproliferative activity against human 786-0 cells assessed as growth inhibition after 48 hrs by sulforhodamine B assay; assay type: functional; details: 786-0, 48 h
NCI/ADR-RES = test: Antiproliferative activity against human NCI-ADR-RES cells assessed as growth inhibition after 48 hrs by sulforhodamine B assay; assay type: functional
OVCAR-8 = test: Antiproliferative activity against human OVCAR8 cells assessed as growth inhibition after 48 hrs by sulforhodamine B assay; assay type: functional; details: OVCAR-8, 48 h
OVCAR-4 = test: Antiproliferative activity against human OVCAR4 cells assessed as growth inhibition after 48 hrs by sulforhodamine B assay; assay type: functional; details: OVCAR-4, 48 h
IGROV-1 = test: Antiproliferative activity against human IGROV1 cells assessed as growth inhibition after 48 hrs by sulforhodamine B assay; assay type: functional; details: IGROV-1, 48 h
SK-MEL-5 = test: Antiproliferative activity against human SK-MEL-5 cells assessed as growth inhibition after 48 hrs by sulforhodamine B assay; assay type: functional; details: SK-MEL-5, 48 h
SK-MEL-28 = test: Antiproliferative activity against human SK-MEL-28 cells assessed as growth inhibition after 48 hrs by sulforhodamine B assay; assay type: functional; details: SK-MEL-28, 48 h
MDA-MB-435 = test: Antiproliferative activity against human MDA-MB-435 cells assessed as growth inhibition after 48 hrs by sulforhodamine B assay; assay type: functional; details: MDA-MB-435, 48 h
U-251 = test: Antiproliferative activity against human U251 cells assessed as growth inhibition after 48 hrs by sulforhodamine B assay; assay type: functional; details: U-251, 48 h
SF-295 = test: Antiproliferative activity against human SF295 cells assessed as growth inhibition after 48 hrs by sulforhodamine B assay; assay type: functional; details: SF-295, 48 h
SW-620 = test: Antiproliferative activity against human SW620 cells assessed as growth inhibition after 48 hrs by sulforhodamine B assay; assay type: functional; details: SW-620, 48 h
KM12 = test: Antiproliferative activity against human KM12 cells assessed as growth inhibition after 48 hrs by sulforhodamine B assay; assay type: functional; details: KM12, 48 h
HT-29 = test: Antiproliferative activity against human HT-29 cells assessed as growth inhibition after 48 hrs by sulforhodamine B assay; assay type: functional; details: HT-29, 48 h
HCT-15 = test: Antiproliferative activity against human HCT15 cells assessed as growth inhibition after 48 hrs by sulforhodamine B assay; assay type: functional; details: HCT-15, 48 h
HCT-116 [3] = test: Antiproliferative activity against human HCT116 cells assessed as growth inhibition after 48 hrs by sulforhodamine B assay; assay type: functional; details: HCT-116, 48 h
HCC 2998 = test: Antiproliferative activity against human HCC2998 cells assessed as growth inhibition after 48 hrs by sulforhodamine B assay; assay type: functional; details: HCC 2998, 48 h
COLO 205 = test: Antiproliferative activity against human COLO205 cells assessed as growth inhibition after 48 hrs by sulforhodamine B assay; assay type: functional; details: COLO 205, 48 h
NCI-H522 = test: Antiproliferative activity against human NCI-H522 cells assessed as growth inhibition after 48 hrs by sulforhodamine B assay; assay type: functional; details: NCI-H522, 48 h
NCI-H322M = test: Antiproliferative activity against human NCI-H322M cells assessed as growth inhibition after 48 hrs by sulforhodamine B assay; assay type: functional
NCI-H226 = test: Antiproliferative activity against human NCI-H226 cells assessed as growth inhibition after 48 hrs by sulforhodamine B assay; assay type: functional; details: NCI-H226, 48 h
EKVX = test: Antiproliferative activity against human EKVX cells assessed as growth inhibition after 48 hrs by sulforhodamine B assay; assay type: functional
A549 = test: Antiproliferative activity against human A549/ATCC cells assessed as growth inhibition after 48 hrs by sulforhodamine B assay; assay type: functional; details: A549, 48 h
MOLT-4 = test: Antiproliferative activity against human MOLT4 cells assessed as growth inhibition after 48 hrs by sulforhodamine B assay; assay type: functional; details: MOLT-4, 48 h
K562 = test: Antiproliferative activity against human K562 cells assessed as growth inhibition after 48 hrs by sulforhodamine B assay; assay type: functional, cell-based; details: K562, 48 h, read-out: IC50
HL-60(TB) = test: Antiproliferative activity against human HL-60(TB) cells assessed as growth inhibition after 48 hrs by sulforhodamine B assay; assay type: functional; details: HL-60, 48 h
BT-549 = test: Antiproliferative activity against human BT549 cells assessed as growth inhibition after 48 hrs by sulforhodamine B assay; assay type: functional; details: BT-549, 48 h
MDA-MB-468 = test: Antiproliferative activity against human MDA-MB-468 cells assessed as growth inhibition after 48 hrs by sulforhodamine B assay; assay type: functional; details: MDA-MB-468, 48 h
[4] = Haemolytic activity in human erythrocytes assessed as induction of hemolysis at 5 mM after 30 mins relative to H202; assay type: cell-based, Erythrocyte; details: read-out: Activity
Erythrocyte = test: Haemolytic activity in human erythrocytes assessed as induction of hemolysis at 0.625 mM after 30 mins relative to H202; assay type: cell-based; details: erythrocyte, 0.5 h, 625 µM
[5] = Antioxidant activity assessed as DPPH radical scavenging activity incubated in dark for 30 mins by spectrophotometric method relative to control; assay type: functional; design: concentration or dose not given beside the values
[6] = Antioxidant activity assessed as DPPH radical scavenging activity incubated in dark for 30 mins by spectrophotometric method relative to ascorbic acid; assay type: functional
[7] = Antioxidant activity assessed as ABTS radical scavenging activity by spectrophotometric analysis relative to control; assay type: functional; design: concentration or dose not given beside the values; details: dose or concentration not given here
[8] = Antioxidant activity assessed as ABTS radical scavenging activity by spectrophotometric method relative to ascorbic acid; assay type: functional
HCT-116 [9] = test: Induction of apoptosis in human HCT116 cells assessed as increase in caspase 9 mRNA expression at 100 nM after 6 hrs hrs by SYBR green dye-based qRT-PCR analysis relative to control; assay type: functional
HCT-116 [10] = test: […] in CDK1 mRNA expression in human HCT116 cells at 100 nM after 6 hrs hrs by SYBR green dye-based qRT-PCR analysis relative to control; assay type: functional

## N=C(N)c1ccc(-c2ccc(-c3ccc(F)cc3)o2)o1
UO-31
  GI50: 1430 nM
TK-10
  GI50: 1550 nM
[1]
  GI50: 1470 nM
  LC50: 9550 nM
  TGI: 3460 nM
[2]
  Selectivity Index: 7.2
PC-3
  GI50: 1220 nM
ACHN
  GI50: 1600 nM
A498
  GI50: 1900 nM
786-0
  GI50: 1660 nM
NCI/ADR-RES
  GI50: 1680 nM
OVCAR-8
  GI50: 1980 nM
OVCAR-4
  GI50: 1620 nM
IGROV-1
  GI50: 1580 nM
SK-MEL-5
  GI50: 1560 nM
SK-MEL-28
  GI50: 1630 nM
MDA-MB-435
  GI50: 350 nM
U-251
  GI50: 1600 nM
SF-295
  GI50: 1510 nM
SW-620
  GI50: 940 nM
KM12
  GI50: 1440 nM
HT-29
  GI50: 610 nM
HCT-15
  GI50: 630 nM
HCT-116 [3]
  GI50: 1180 nM
HCC 2998
  GI50: 1370 nM
COLO 205
  GI50: 1600 nM
NCI-H522
  GI50: 1360 nM
NCI-H322M
  GI50: 1600 nM
NCI-H226
  GI50: 2820 nM
EKVX
  GI50: 1350 nM
A549
  GI50: 1650 nM
MOLT-4
  GI50: 1600 nM
K562
  IC50: 490 nM
HL-60(TB)
  GI50: 1800 nM
BT-549
  GI50: 2270 nM
MDA-MB-468
  GI50: 1360 nM
[4]
  hemolysis at 0.5 h, 5000 µM: 66.3%
Erythrocyte
  Activity: Non-Toxic
[5]
  inhibition: 9.9%
[6]
  fold change (FC): 0.1
[7]
  inhibition: 13.2%
[8]
  fold change (FC): 0.1
HCT-116 [9]
  fold change (FC): 4.67
HCT-116 [10]
  fold change (FC): 1.07

## N=C(N)c1ccc(-c2ccc(-c3cc(Cl)cc(Cl)c3)s2)s1
UO-31
  GI50: 1740 nM
TK-10
  GI50: 1850 nM
[1]
  GI50: 1940 nM
  LC50: 75800 nM
  TGI: 4460 nM
[2]
  Selectivity Index: 50.9
PC-3
  GI50: 1880 nM
ACHN
  GI50: 1750 nM
A498
  GI50: 1530 nM
786-0
  GI50: 1980 nM
NCI/ADR-RES
  GI50: 2060 nM
OVCAR-8
  GI50: 2390 nM
OVCAR-4
  GI50: 1910 nM
IGROV-1
  GI50: 1970 nM
SK-MEL-5
  GI50: 1900 nM
SK-MEL-28
  GI50: 1830 nM
MDA-MB-435
  GI50: 1670 nM
U-251
  GI50: 1860 nM
SF-295
  GI50: 1960 nM
SW-620
  GI50: 1920 nM
KM12
  GI50: 1750 nM
HT-29
  GI50: 1650 nM
HCT-15
  GI50: 1620 nM
HCT-116 [3]
  GI50: 1610 nM
HCC 2998
  GI50: 1750 nM
COLO 205
  GI50: 1540 nM
NCI-H522
  GI50: 1910 nM
NCI-H322M
  GI50: 1660 nM
NCI-H226
  GI50: 30800 nM
EKVX
  GI50: 1750 nM
A549
  GI50: 2070 nM
MOLT-4
  GI50: 1710 nM
K562
  IC50: 1290 nM
HL-60(TB)
  GI50: 1660 nM
BT-549
  GI50: 4370 nM
MDA-MB-468
  GI50: 2060 nM
[4]
  hemolysis at 0.5 h, 5000 µM: 6.7%
Erythrocyte
  Activity: Non-Toxic
[5]
  inhibition: 27.2%
[6]
  fold change (FC): 0.3
[7]
  inhibition: 36.2%
[8]
  fold change (FC): 0.4
HCT-116 [9]
  fold change (FC): 1.54
HCT-116 [10]
  fold change (FC): 0.21

## N=C(N)c1ccc(-c2ccc(-c3ccc(F)cc3)s2)s1
UO-31
  GI50: 1770 nM
TK-10
  GI50: 1720 nM
[1]
  GI50: 1770 nM
  LC50: 12000 nM
  TGI: 3540 nM
[2]
  Selectivity Index: 7.5
PC-3
  GI50: 1770 nM
ACHN
  GI50: 1710 nM
A498
  GI50: 1950 nM
786-0
  GI50: 1810 nM
NCI/ADR-RES
  GI50: 1790 nM
OVCAR-8
  GI50: 2230 nM
OVCAR-4
  GI50: 1680 nM
IGROV-1
  GI50: 1730 nM
SK-MEL-5
  GI50: 1810 nM
SK-MEL-28
  GI50: 1730 nM
MDA-MB-435
  GI50: 1590 nM
U-251
  GI50: 1800 nM
SF-295
  GI50: 1610 nM
SW-620
  GI50: 1740 nM
KM12
  GI50: 1710 nM
HT-29
  GI50: 1530 nM
HCT-15
  GI50: 1340 nM
HCT-116 [3]
  GI50: 1730 nM
HCC 2998
  GI50: 1730 nM
COLO 205
  GI50: 1320 nM
NCI-H522
  GI50: 1820 nM
NCI-H322M
  GI50: 1630 nM
NCI-H226
  GI50: 1420 nM
EKVX
  GI50: 1470 nM
A549
  GI50: 1930 nM
MOLT-4
  GI50: 1520 nM
K562
  IC50: 1210 nM
HL-60(TB)
  GI50: 1400 nM
BT-549
  GI50: 1890 nM
MDA-MB-468
  GI50: 2040 nM
[4]
  hemolysis at 0.5 h, 5000 µM: 59.7%
Erythrocyte
  Activity: Non-Toxic
[5]
  inhibition: 44.8%
[6]
  fold change (FC): 0.5
[7]
  inhibition: 49.7%
[8]
  fold change (FC): 0.5
HCT-116 [9]
  fold change (FC): 3.89
HCT-116 [10]
  fold change (FC): 0.89
